From ChEMBL document CHEMBL4837181 (Eur J Med Chem, 2020)
The source made the active and inactive calls. No cut-off for these calls is given here.

Key:
[1] = Dose normalized Cmax in rat at 50 mg/kg, po measured upto 72 hrs by LC-MS/MS analysis; type: ADME, organism-based; settings: in vivo
[2] = Change in normalised AUC (infinity) in rat at 50 mg/kg, po measured upto 72 hrs by LC-MS/MS analysis; type: ADME, organism-based; settings: in vivo
[3] = Stability in mouse plasma assessed as parent compound remaining measured after 2 hrs by LC-MS/MS analysis; type: ADME, cell-free; settings: read-out: Stabilty
[4] = Stability in rat plasma assessed as parent compound remaining measured after 2 hrs by LC-MS/MS analysis; type: ADME, cell-free; settings: read-out: Stabilty
[5] = Dose normalized AUC (0 to infinity) in rat at 50 mg/kg, po measured upto 72 hrs by LC-MS/MS analysis; type: ADME, organism-based; settings: in vivo
[6] = Change in normalised Cmax in rat at 50 mg/kg, po measured upto 72 hrs by LC-MS/MS analysis; type: ADME, organism-based; settings: in vivo
[7] = system: B16-F10; assay: Antitumor activity against mouse B16-F10 cells implanted in C57BL/6 mouse assessed as reduction in tumor size at >= 287 micromol/kg, po BID administered from day 6 to day 11 and measured on day 11 by caliper method; type: functional, organism-based; settings: dose micromol/kg >=287
[8] = Change in AUC (infinity) in rat at 37 umol/kg, po measured upto 72 hrs by LC-MS/MS analysis; type: ADME, organism-based; settings: in vivo, at 37 µmol/kg
[9] = Change in Cmax in rat at 185 umol/kg, po measured upto 72 hrs by LC-MS/MS analysis; type: ADME, organism-based; settings: in vivo, at 185 µmol/kg
[10] = Change in Cmax in rat at 37 umol/kg, po measured upto 72 hrs by LC-MS/MS analysis; type: ADME, organism-based; settings: in vivo, at 37 µmol/kg
[11] = Chemical stability of compound in simulated gastric fluid assessed as compound remaining at 5 uM measured after 24 hrs by LC-MS/MS analysis; type: ADME, physicochemical; settings: read-out: Stabilty
[12] = Stability in human plasma assessed as parent compound remaining measured after 6 hrs by LC-MS/MS analysis; type: ADME, cell-free; settings: read-out: Stabilty
[13] = Change in normalised Cmax in rat at 10 mg/kg, po measured upto 72 hrs by LC-MS/MS analysis; type: ADME, organism-based; settings: in vivo
[14] = Dose normalized AUC (0 to infinity) in rat at 10 mg/kg, po measured upto 72 hrs by LC-MS/MS analysis; type: ADME, organism-based; settings: in vivo
[15] = Chemical stability of compound in 0.1 N aqueous HCl buffer assessed as compound remaining at pH 1 at 5 uM measured after 24 hrs by LC-MS/MS analysis; type: physicochemical; settings: pH 1, 24 h
[16] = Chemical stability of compound in PBS buffer assessed as compound remaining at pH 7.4 at 5 uM measured after 24 hrs by LC-MS/MS analysis; type: physicochemical; settings: read-out: Stabilty
[17] = Dose normalized Cmax in rat at 10 mg/kg, po measured upto 72 hrs by LC-MS/MS analysis; type: ADME, organism-based; settings: in vivo
[18] = Chemical stability of compound in simulated intestinal fluid assessed as compound remaining at 5 uM measured after 3 hrs by LC-MS/MS analysis; type: ADME, physicochemical; settings: read-out: Stabilty
[19] = Chemical stability of compound in simulated gastric fluid assessed as compound remaining at 5 uM measured after 1.5 hrs by LC-MS/MS analysis; type: ADME, physicochemical; settings: read-out: Stabilty
[20] = Chemical stability of compound in 0.1 N aqueous HCl buffer assessed as compound remaining at pH 1 at 5 uM measured after 1.5 hrs by LC-MS/MS analysis; type: physicochemical; settings: pH 1, 1.5 h
[21] = Chemical stability of compound in PBS buffer assessed as compound remaining at pH 7.4 at 5 uM measured after 6 hrs by LC-MS/MS analysis; type: physicochemical; settings: read-out: Stabilty
[22] = Stability in human plasma assessed as parent compound remaining measured after 24 hrs by LC-MS/MS analysis; type: ADME, cell-free; settings: read-out: Stabilty
[23] = Change in normalised AUCinfinity in rat at 10 mg/kg, po measured upto 72 hrs by LC-MS/MS analysis; type: ADME, organism-based; settings: in vivo
[24] = Chemical stability of compound in simulated intestinal fluid assessed as compound remaining at 5 uM measured after 24 hrs by LC-MS/MS analysis; type: ADME, physicochemical; settings: read-out: Stabilty
[25] = Chemical stability of compound in saline assessed as compound remaining at 5 uM measured after 24 hrs by LC-MS/MS analysis; type: physicochemical; settings: read-out: Stabilty

## CCOC(=O)N[C@H](Cc1cn(C)c2ccccc12)C(=O)O
[1]
  Cmax/dose: 6 µM
[2]
  Activity: -83%
[3]
  remaining at 2 h: 97%
[4]
  remaining at 2 h: 100%
[5]
  AUC/dose: 229 µM·h
[6]
  Activity: -78%

## CCOC(=O)[C@@H](Cc1cn(C)c2ccccc12)NC(=O)[C@@H](N)CC(C)C
[7]
  Activity: Active

## CC(C)OC(=O)[C@H](N)Cc1cn(C)c2ccccc12.Cl
[1]
  Cmax/dose: 28 µM
[2]
  Activity: -21%
[3]
  remaining at 2 h: 0%
[4]
  remaining at 2 h: 0%
[5]
  AUC/dose: 1051 µM·h
[6]
  Activity: 4%

## Cn1cc(C[C@@H](NC(=O)OCC(C)(C)C)C(=O)O)c2ccccc21
[1]
  Cmax/dose: 0.15 µM
[2]
  Activity: -100%
[3]
  remaining at 2 h: 100%
[4]
  remaining at 2 h: 100%
[5]
  AUC/dose: 5.5 µM·h
[6]
  Activity: -99%

## CCOC(=O)[C@@H](Cc1cn(C)c2ccccc12)NC(=O)[C@@H](N)CCSC.O=P(O)(O)O
[8]
  Activity: 2%
[9]
  Activity: 49%
[10]
  Activity: 32%

## CCOC(=O)[C@@H](Cc1cn(C)c2ccccc12)NC(=O)[C@@H](N)CCC(N)=O.Cl
[11]
  remaining at 24 h, 5 µM: 88%
[12]
  remaining at 6 h: 23%
[13]
  Activity: 41%
[14]
  AUC/dose: 806 µM·h
[8]
  Activity: -1%
[15]
  Stabilty: 85%
[16]
  remaining at 24 h, 5 µM: 17%
[17]
  Cmax/dose: 24.4 µM
[18]
  remaining at 3 h, 5 µM: 70%
[19]
  remaining at 1.5 h, 5 µM: 108%
[3]
  remaining at 2 h: 0%
[10]
  Activity: 12%
[20]
  Stabilty: 73%
[21]
  remaining at 6 h, 5 µM: 67%
[4]
  remaining at 2 h: 0%
[22]
  remaining at 24 h: 0%
[23]
  Activity: 58%
[24]
  remaining at 24 h, 5 µM: 1%
[25]
  remaining at 24 h, 5 µM: 85%
